In assay [1] the target is T1, human CFTR (Homo sapiens, UniProt P13569).
T1 construct: host or cells: CHO
In words: IonWorks Barracuda electrophysiology, CFTR chloride current in CHO cells. It is filed as cell-based. The following applies: for effect on CFTR chloride current: 10 µM compound, CHO CFTR. The source says:
HEK293 cells stably expressing the human TMEM16A (abc) variant and CHO cells expressing the human CFTR gene were from ChanTest. The IonWorks Barracuda (IWB) procedure and data provided are from outsourced studies performed at ChanTest (Charles River Discovery, Cleveland, OH, United States) who were blinded as to the identity of the test articles or compounds provided by Amgen.
For measuring compound effects on CFTR chloride currents, compounds were serially diluted in HEPES-buffered physiological saline to 2X final concentration allowing for an 8-point dose-response analysis. Test article concentrations were applied to naïve cells (n = 4, where n = the number of replicate wells/concentration) via steel needles, where each application will consist of addition of 20 μl of 2X concentrated test article solution to a final 40 μl volume in the extracellular well of the Population Patch ClampTM (PPC) planar electrode. After mixing (three times), duration of exposure to compound is at least 5 min. Final solutions contain 0.3% DMSO. […] The current is measured using a pulse pattern consisting of a voltage step to +60 mV, 100 ms duration; voltage ramp from +60 to −120 mV, 1000 ms; step to −120 mV, 200 ms; and step to 0 mV, 200 ms; from holding potential, −30 mV. Current amplitudes were measured at the voltage step to 0 mV. The recording procedure was as follows: extracellular buffer is loaded into the PPC plate wells (11 μl per well). Cell suspension was pipetted into the wells (9 μl per well) of the PPC planar electrode. After establishment of a whole-cell configuration via amphotericin patch perforation similar to that described earlier, membrane currents were recorded using the patch clamp amplifier in the IonWorks^TM Barracuda system. Two recordings (scans) were then performed, one scan before and a second scan 5 min after test article (TA) application. […] Data acquisition and analyses were performed using the IonWorks Barracuda^TM system operation software (version 2.0.2). The decrease in current amplitude after test article application was used to calculate the percent block relative to control. […] Inhibition effect was calculated as: % Inhibition = (1 – ITA/IBaseline) × 100%, where IBaseline and ITA were the currents measured in control (before addition of a test article) and in the presence of a test article, respectively.
On the technique in general: The patch-clamp technique gives a direct electrical read-out from membranes.

Assay [2] relates to human bronchial rings. In words: Wire myograph bronchodilation of carbachol pre-contracted human bronchial rings (Amgen). The procedure:
Bronchodilator studies using human bronchial rings (Figure 5E–G and Supplementary Figure 38) used the same instruments and reagents described earlier for studies on mouse tracheal rings.
Non-transplantable human lungs were obtained through the International Institute for the Advancement of Medicine, IIAM (Edison, NJ, United States) from non-smoking donors who had been ventilated for <3 days with acceptable blood gasses and used within 24 h of cross-clamp time.
Human 4th order bronchial rings were isolated, sliced into 2 mm long rings and then mounted individually in chambers of wire myographs containing 6 ml room temperature PSS per chamber. […] Bronchial rings are allowed to equilibrate in PSS while chambers are warmed to 37°C. […] The rings were then equilibrated for additional 40–60 min, changing buffer every 15–20 min. Tension was adjusted if it dropped below 9.8 mN. Airway rings were “woken up” by exposing to pre-warmed, aerated KPSS and allowing rings to reach plateau of constriction, followed by washing rings four times with PSS. This procedure was repeated two additional times.
Airway contraction response was then assessed by treating with increasing doses of the contractant, carbachol (10 nM to 10 μM), waiting for response plateaus (at least 5 min between additions).
At the end of each CCRC, rings were fully relaxed by addition of 2.2 mM theophylline. One hundred percent contraction was calculated by subtracting the stable tension remaining in the airway ring after theophylline addition from the tension achieved after addition of EC75 carbachol while 100% relaxation is the net tension remaining after theophylline addition. Dose response curves and EC50 values for bronchodilation were determined in GraphPad Prism.

Assay [3] relates to COLO205 cells. In words: QPatch electrophysiology of endogenous calcium-activated chloride current in COLO205 cells. It is filed as cell-based, human. As to conditions: 170 nM free calcium. An excerpt:
HEK293 cells stably expressing the TMEM16A (acd) variant were purchased from SB Drug Discovery. The HEK293 TMEM16A (abc) stable cell line was from ChanTest and COLO-205 cells were purchased from ATCC. The same standard buffers and recording conditions listed below were used for QPatch studies on all three cell lines.
Recording Solutions: were made weekly as below and stored at room temperature until used. It is recommended not to add ATP to internal solution until immediately before using on the QPatch. The external buffer (in mM) was 140 NaCl, 4 KCl, 2 CaCl2, 1 MgCl2, 10 HEPES, 10 Glucose, pH7.4, while the internal buffer (in mM) was 110 CsCl, 20 TEA-Cl, 5.374 CaCl2, 1.75 MgCl2, 10 EGTA, 10 HEPES, 4 Na2ATP, pH 7.2.
Once established in whole-cell configuration, cells were clamped to a holding potential (Vhold) of 0 mV on 48 well single hole patch plate. A standardized IV protocol was used to elicit ionic current through the TMEM16A chloride channel at 20 s intervals. Steady-state voltage pulses were from −100 mV to +100 mV in +20 mV steps for a duration of 500 ms. After each pulse the voltage was returned to −100 mV for 50 ms to obtain tail currents, and then returned to the holding potential of 0 mV until the beginning of the next sweep. Block of TMEM16A chloride current due to test article was measured at the +100 mV depolarization sweep of the third and final IV protocol run per concentration addition. This ensures a minimum of 60 s per concentration incubation before measuring current block. Currents were acquired at 10 kHz and filtered at 2 kHz, leak subtraction and Rseries were disabled. […]
A cumulative concentration response was measured where each cell is exposed to five concentrations of test article with a dilution factor of 1:5 (e.g., 0.048, 0.24, 1.2, 6, and 30 μM). Cells were recorded for ∼60 s per solution/compound addition. […] Recovery/washout was monitored for a final minute with a final external solution addition.
Peak outward current magnitude at 540 ms through 550 ms of the IV step was measured for each sweep at […]. […]

[4] abbreviates: 20 μM forskolin, IonWorks Barracuda, read-out: CFTR Chloride Current (IC50).
Setting [5] is: Homo sapiens, EC75 carbachol, 4th order bronchi, 5 μM indomethacin, read-out: EC50 relaxing carbachol precontracted human bronchial rings.
The mark [6] stands for this setting: Homo sapiens, supplement, 5 M indomethacin (so in the source), read-out: EC50 relaxation of carbachol pre-contracted human bronchial rings.

Each structure is given as a SMILES string. Where two headings read alike, the source gives them in different places.

T1 sequence (P13569 whole entry): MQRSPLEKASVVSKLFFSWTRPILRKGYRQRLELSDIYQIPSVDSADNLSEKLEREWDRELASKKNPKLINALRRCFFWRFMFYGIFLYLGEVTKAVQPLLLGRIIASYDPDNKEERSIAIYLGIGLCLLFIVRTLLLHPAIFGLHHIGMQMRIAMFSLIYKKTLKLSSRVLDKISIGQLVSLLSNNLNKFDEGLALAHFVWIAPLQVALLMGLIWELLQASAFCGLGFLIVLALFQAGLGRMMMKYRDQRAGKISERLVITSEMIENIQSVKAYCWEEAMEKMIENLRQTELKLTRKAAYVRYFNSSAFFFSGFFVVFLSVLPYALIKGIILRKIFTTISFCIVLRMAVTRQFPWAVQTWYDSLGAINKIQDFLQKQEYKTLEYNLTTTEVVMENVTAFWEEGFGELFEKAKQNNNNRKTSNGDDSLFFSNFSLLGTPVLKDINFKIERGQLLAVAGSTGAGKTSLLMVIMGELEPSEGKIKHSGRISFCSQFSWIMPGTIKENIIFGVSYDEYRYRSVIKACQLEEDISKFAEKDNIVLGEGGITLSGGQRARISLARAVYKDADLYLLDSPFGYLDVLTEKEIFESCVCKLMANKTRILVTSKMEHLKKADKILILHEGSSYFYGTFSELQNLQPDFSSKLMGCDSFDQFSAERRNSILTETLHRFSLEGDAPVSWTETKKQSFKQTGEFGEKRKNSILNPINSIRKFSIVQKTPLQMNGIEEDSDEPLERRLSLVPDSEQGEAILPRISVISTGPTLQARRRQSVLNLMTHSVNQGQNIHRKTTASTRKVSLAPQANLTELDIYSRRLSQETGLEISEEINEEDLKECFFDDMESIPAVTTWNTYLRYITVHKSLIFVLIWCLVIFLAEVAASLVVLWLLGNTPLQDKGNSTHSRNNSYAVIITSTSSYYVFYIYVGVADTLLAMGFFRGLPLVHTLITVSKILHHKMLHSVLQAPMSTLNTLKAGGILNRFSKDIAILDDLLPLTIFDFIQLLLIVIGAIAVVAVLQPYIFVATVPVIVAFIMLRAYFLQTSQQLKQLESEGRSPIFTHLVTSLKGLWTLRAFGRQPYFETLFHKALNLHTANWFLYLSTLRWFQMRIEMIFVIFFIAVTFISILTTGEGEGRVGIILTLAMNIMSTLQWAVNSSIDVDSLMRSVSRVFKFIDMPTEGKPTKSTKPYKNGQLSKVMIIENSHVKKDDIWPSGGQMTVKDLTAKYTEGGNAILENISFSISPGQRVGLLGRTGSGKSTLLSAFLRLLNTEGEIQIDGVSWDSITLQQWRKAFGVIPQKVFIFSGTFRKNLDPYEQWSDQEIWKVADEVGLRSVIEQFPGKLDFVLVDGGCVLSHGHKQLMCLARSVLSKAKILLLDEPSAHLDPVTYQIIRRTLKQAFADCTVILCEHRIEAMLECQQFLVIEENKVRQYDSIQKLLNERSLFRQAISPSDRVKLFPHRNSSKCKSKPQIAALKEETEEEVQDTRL

`N#Cc1c(C(F)(F)F)cc(O)n2c1nc1ccccc12` [1PBC]: the IC50 (usually the concentration needed to halve the response being measured) in assay [1] (setting [4]) was above 30 µM. In addition, in assay [1] (IonWorks Barracuda), the “effect on cAMP-induced CFTR chloride current” value was “inactive”. Besides, the EC50 (commonly the concentration that produces a half-maximal response) came to 0.91 ± 0.2 µM in assay [2] (setting [5]) and 0.761 µM in assay [2] (setting [6]). In assay [3], the “block of native chloride current in COLO205 cells” value (“block of native chloride current” below) is “fully blocked”.
In the case of `CCc1oc2ccccc2c1C(=O)c1cc(Br)c(O)c(Br)c1` [Benzbromarone], the IC50 in assay [1] stood at 5.2 µM. Also, in assay [1] (IonWorks Barracuda), the “effect on cAMP-induced CFTR chloride current” value is on record as “reduced”. The EC50 was found to be 2.08 ± 1.95 µM in assay [2] (setting [5]) and 3.45 µM in assay [2] (setting [6]). The “block of native chloride current” value in assay [3] is on record as “fully blocked”.
On to `CC(C)(C)C1CCc2c(sc(NC(=O)c3ccco3)c2C(=O)O)C1` (stereo not shown) [CaCCinh-A01], for which the IC50 in assay [1] (setting [4]) amounted to 10.1 µM. Moreover, the “effect on cAMP-induced CFTR chloride current” value in assay [1] (IonWorks Barracuda) is on record as “reduced”. The EC50 in assay [2] (setting [5]) amounted to 9.24 µM. Further, in assay [3], the “block of native chloride current” value is listed as “fully blocked”.
Consider `O=C(Nc1ccc([N+](=O)[O-])cc1)c1cc(Cl)ccc1O` [Cpd 2], for which the “percent of inhibition (POI) of the forskolin-induced CFTR current” value (from here on “percent of inhibition”) in assay [1] is reported as below 20%. Moreover, the “effect on cAMP-induced CFTR chloride current” value in assay [1] (IonWorks Barracuda) is “inactive”.
Regarding `COc1cc([N+](=O)[O-])ccc1NC(=O)c1cc(Cl)c2ccccc2c1O` [Cpd 4], in assay [1], the “percent of inhibition” value is on record as below 20% and the “effect on CFTR chloride current” value is on record as “no significant effects”. The IC50 in assay [1] (setting [4]) is above 30 µM. Besides, the “effect on cAMP-induced CFTR chloride current” value in assay [1] (IonWorks Barracuda) was “inactive”. In addition, the EC50 in assay [2] (setting [5]) worked out at 1.61 µM.
Take `Oc1ccc(Cl)cc1Cc1cc(Cl)ccc1O` [Dichlorophen]: the EC50 in assay [2] (EC75 carbachol, 4th order bronchi, 5 μM indomethacin, read-out: EC50 relaxing carbachol precontracted human bronchial rings) is 10.6 ± 12 µM; in assay [2] (setting [5]), 19.1 µM.
In the case of `COc1cc(Nc2ccc([N+](=O)[O-])cc2C(=O)O)cc2ccccc12` [MONNA], the IC50 in assay [1] (setting [4]) was determined as 19 µM. Besides, the “effect on cAMP-induced CFTR chloride current” value in assay [1] (IonWorks Barracuda) is on record as “reduced”.
Take `O=C(Nc1ccc([N+](=O)[O-])cc1Cl)c1cc(Cl)ccc1O` [Niclosamide]: in assay [1], the “percent of inhibition” value is listed as below 20% and the “effect on CFTR chloride current” value is reported as “no significant effects”. In assay [1] (setting [4]), the IC50 is above 30 µM. The “effect on cAMP-induced CFTR chloride current” value in assay [1] (IonWorks Barracuda) is “inactive”. In assay [2] (setting [5]), the EC50 is 0.73 µM.
For the compound `O=C(O)c1cccnc1Nc1cccc(C(F)(F)F)c1` [Niflumic Acid], in assay [1] (setting [4]), the IC50 is above 30 µM. The EC50 in assay [2] (setting [5]) is 14.4 ± 0.76 µM; in assay [2] (setting [6]), 14.9 µM.
For `CCc1c(C)nc(SCC(=O)Nc2nc(-c3ccc(OC)cc3)cs2)[nH]c1=O` [T16Ainh-A01], the IC50 in assay [1] (setting [4]) is above 30 µM.

The values are drawn from paper PMC6382696, “Drug Repurposing: The Anthelmintics Niclosamide and Nitazoxanide Are Potent TMEM16A Antagonists That Fully Bronchodilate Airways” (Frontiers in Pharmacology, 2019).
